Results reported in patent US5594024A, “Centrally actig substituted phenylazacycloalkanes” (priority 1995, dated 1997).
Entries after “also recorded” stand apart in the source; their conditions may differ.

Experiments:
[1] = tested on: DA receptor; test: DA metabolism (DOPAC, HVA levels) in habituated rats; type: in vivo, rat (male Sprague-Dawley); settings: Rattus norvegicus, 1 h, read-out: DOPAC limbic
How it was run: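 Rats habituated to motility meters 60 min, no NSD given; killed one hour after drug administration (injection volume 5 mL/kg). Striatal and limbic DOPAC, HVA and 5-HIAA measured by HPLC-EC, expressed as % of controls (means ±SEM).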

[2] = tested on: central dopamine receptors; test: Locomotor activity and DA synthesis in reserpinized rats; type: in vivo, rat; settings: reserpinized rats
[3] = tested on: non-pretreated rats; test: Locomotor activity and gross behavior in non-habituated (non-pretreated) rats; settings: for Gross Behavioral Observations: non-pretreated rats
[4] = target: T1, 5-HT1A (Rattus norvegicus, UniProt P19327); test: 5-HT1A radioligand binding ([3H]-8-OH-DPAT); set-up: species or system rat (male Sprague-Dawley)
T1 construct: the whole brain with the exception of the brainstem and cerebellum was rapidly removed; from tissue
T1 sequence (P19327 1-422): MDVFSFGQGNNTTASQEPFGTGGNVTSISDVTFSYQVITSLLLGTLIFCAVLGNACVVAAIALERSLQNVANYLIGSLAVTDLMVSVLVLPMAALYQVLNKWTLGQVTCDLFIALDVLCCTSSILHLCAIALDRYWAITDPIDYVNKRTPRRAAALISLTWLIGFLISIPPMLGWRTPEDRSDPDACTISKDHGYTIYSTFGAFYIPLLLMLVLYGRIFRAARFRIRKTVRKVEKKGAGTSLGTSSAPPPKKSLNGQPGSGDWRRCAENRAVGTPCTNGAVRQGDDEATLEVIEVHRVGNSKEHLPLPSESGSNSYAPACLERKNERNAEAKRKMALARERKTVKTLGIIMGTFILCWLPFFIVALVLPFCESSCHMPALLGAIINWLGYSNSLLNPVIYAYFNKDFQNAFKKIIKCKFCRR
How it was run: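 Rat forebrain membranes (whole brain minus brainstem and cerebellum) in 50 mM Tris pH 8.0 with NaCl, CaCl2, MgCl2 and 10 μM pargyline; 1 nM [3H]-8-OH-DPAT, 15 min at 37° C., filtration. Nonspecific binding defined with 10 μM 5-HT; IC50 by semi-log plot and linear regression.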

[5] = tested on: habituated rats; test: Locomotor activity and behavior in habituated rats; type: in vivo, rat (male Sprague-Dawley); settings: 60 min
Method: (§1) Footnotes Table 3. The rats were habituated to the motility meters 60 min
prior to the activity session.
(§2) Injection volumes were 5 mL/kg.
Locomotor activity was measured in rats which were habituated 60 minutes to the activity meters before drug injection. The activity was measured for the subsequent 60 minutes and expressed as % of controls (means ±SEM, n=4).

[6] = tested on: 5-HT receptor; test: 5-HT metabolism (5-HIAA levels) in habituated rats; type: in vivo, rat (male Sprague-Dawley); settings: Table 3
Method: as §1
SEM. The rats were immediately killed after the activity session, striata
and limbic levels of DOPAC and 5HIAA were measured by means of HPLCEC. *p
In the experiments with habituated rats no NSD was administered and the animals were killed one hour after drug administration. […] The levels were expressed as % of controls (DOPAC and 5-HIAA see Table 3). The in vivo brain microdialysis experiments were performed in conscious rats as described by Waters et al., Eur. J. Pharm., 187, 425-34 (1990).
Injection volumes were 5 mL/kg. […]

[7] = tested on: d-amphetamine-induced hyperactivity; test: d-Amphetamine-induced hyperactivity in habituated rats; type: in vivo, rat
[8] = tested on: DA receptor; test: DOPA accumulation (DA synthesis rate) in non-pretreated rats after NSD 1015; settings: for duration of the increase in brain DOPA accumulation: 50 μmol/kg
[9] = target: T2, D2 receptors (Rattus norvegicus, UniProt P61169); test: D2 antagonist binding ([3H]-spiperone), rat striatum
T2 construct: Preparation of rat striatal membranes for (3H)-spiperone; from tissue; host or cells: rat striatum (striatal membranes)
Method: D2 antagonist binding. Preparation of rat striatal membranes for (3H)-spiperone (specific activity 21-24 Ci/mmol) binding was carried out in a similar manner as described for D1-binding, Hyttel et al., J. Neural. Transm., 68, 171 (1987).
IC50 values were calculated by semi-log plot and linear regression analysis.

[10] = tested on: 5-HT receptor; test: 5-HTP accumulation (5-HT synthesis rate) in non-pretreated rats after NSD 1015; type: in vivo, rat (male Sprague-Dawley)
Method: observations are commented to the right. After the session the rats were
accumulation in the NErich cortical regions and 5HTP in the limbic
as §2

T2 sequence (P61169 whole entry): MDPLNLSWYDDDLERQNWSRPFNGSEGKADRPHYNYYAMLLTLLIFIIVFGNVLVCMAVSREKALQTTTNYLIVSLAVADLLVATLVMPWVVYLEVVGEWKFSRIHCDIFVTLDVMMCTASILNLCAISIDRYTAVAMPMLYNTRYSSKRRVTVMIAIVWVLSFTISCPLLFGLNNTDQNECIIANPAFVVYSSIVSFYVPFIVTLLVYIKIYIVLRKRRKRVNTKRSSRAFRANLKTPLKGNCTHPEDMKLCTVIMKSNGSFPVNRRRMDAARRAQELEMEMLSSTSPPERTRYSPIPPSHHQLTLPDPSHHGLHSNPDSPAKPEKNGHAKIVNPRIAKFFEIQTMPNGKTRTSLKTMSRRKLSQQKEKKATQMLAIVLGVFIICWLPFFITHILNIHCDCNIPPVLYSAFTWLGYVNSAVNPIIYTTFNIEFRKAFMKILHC

CCCN1CCC[C@@H](c2cccc(C#N)c2)C1 [S-(-)-34, S-(-)-3-(3-Cyanophenyl-N-n-propyl)piperidine]
response vs control in vivo at 25 µmol/kg ([1]; po): 138 ± 13% | response vs control in vivo at 100 µmol/kg ([1]; sc): 226 ± 11% | DA synthesis rate / DOPA accumulation in reserpinized rats (in words) [2]: failed to affect the DOPA accumulation in reserpinized | increase in motor activity, maximal effect ([3]; 25-200 μmol/kg, sc, dose-dependent monophasic, non-habituated rats): +60% | Gross Behavioral Observations ([3]; 50 sc): Activation | Gross Behavioral Observations ([3]; 100 sc): Activation | Gross Behavioral Observations ([3]; 200 sc): No change | affinity for the 5-HT1A receptors in vitro (in words) [4]: very low affinity for the 5-HT1A receptors | IC50 ([4]; [3H]-8-OH-DPAT, rat cortex, read-out: in vitro binding IC50, 5HT1A): 75 µM | locomotor stimulation in habituated rats ([5]; % of controls): +600% | response vs control in vivo at 25 µmol/kg ([5]; Rattus norvegicus, 1 h, 25 μmol/kg po, habituated rats, read-out: Motor Activity): 231 ± 31% | brain 5-HIAA levels (in words) [6]: no statistical significant effects; also recorded: No effects on the brain levels of 5-HIAA; also recorded: failed to affect brain levels of 5-HIAA | effect on d-amphetamine-induced hyperactivity ([7]; 64 mg/kg, sc, d-amphetamine 5.0 mg/kg): failed to block the hyperactivity | effect combined with lower dose of d-amphetamine ([7]; d-amphetamine 0.5 mg/kg, sc): additive stimulatory effect | block of d-amphetamine-induced hyperactivity (in words) ([7]; even at high doses): failed to block d-amphetamine-induced hyperactivity even at high doses | effect on activation induced by high dose d-amphetamine ([7]; test compound 14 mg/kg, sc, d-amphetamine 5 mg/kg): failed to affect the strong activation | duration of the increase in brain DOPA accumulation ([8]; po): 1.5 to 2.5 h | duration of the increase in brain DOPA accumulation ([8]; s.c.): 2.5 to 4.5 h | DOPA accumulation in limbic and striatal brain regions (in words) ([8]; 3.1-200 μmol/kg, s.c.): elevated in the limbic (limb.) and striatal (stri) brain regions with a maximal response equal to that observed for classical neuroleptics such as haloperidol | DOPA acc Cortex ([8]; 50 sc): 155 ± 9 % of saline controls | DOPA acc Stratium ([8]; 50 sc): 285 ± 3 % of saline controls | DOPA acc Cortex ([8]; 100 sc): 158 ± 8 % of saline controls | DOPA acc Stratium ([8]; 100 sc): 268 ± 16 % of saline controls | DOPA acc Cortex ([8]; 200 sc): 148 ± 16 % of saline controls | DOPA acc Stratium ([8]; 200 sc): 294 ± 26 % of saline controls | estimated availability ([8]; from DOPA accumulation in the striatum after sc and po administration): 50% | cortical DOPA formation (in words) ([8]; s.c.): slightly, but statistically significantly increased; also recorded: slight increase in cortical DOPA accumulation | affinity for D2 receptors (in words) ([9]; (3H)-Spiperone binding): weak, affinity to the dopamine D2 receptor site | IC50 ([9]; read-out: in vitro binding IC50, D2 -spip, [3H]-spiperone, rat striatum): 3.5 µM | brain 5-HTP formation, elevation ([10]; 25 μmol/kg, sc and above): 45-50% | 5-HTP acc Limbic Region ([10]; 50 sc): 144 ± 6 % of saline controls | 5-HTP acc Limbic Region ([10]; 100 sc): 148 ± 10 % of saline controls | 5-HTP acc Limbic Region ([10]; 200 sc): 80 ± 12 % of saline controls | brain 5-HTP levels (in words) ([10]; non-pretreated rats): elevated brain 5-HTP levels
